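Briefly, cells in 96-well plates were exposed to five compound concentrations for 48 h, and endpoints were estimated by linear interpolation. Abbreviation: GI50, concentration required for 50% inhibition of growth.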 The source made the active and inactive calls. Cut-off read from the data, not from the text of the source: active = GI50 up to about 1.1 µM and inactive = higher.
Experiments:
Assay in all cases: NCI anticancer screen, dose series, 48 h
[1] = system: ACHN
[2] = system: BT-549
[3] = system: CCRF-CEM
[4] = system: COLO 205
[5] = system: DU-145
[6] = system: EKVX
[7] = system: HCT-116
[8] = system: Hs-578T
[9] = system: IGROV-1
[10] = system: MCF7
[11] = system: MDA-MB-435
[12] = system: MDA-N
[13] = system: NCI-H226
[14] = system: OVCAR-5
[15] = system: SF-539
[16] = system: SNB-75
[17] = system: SR
[18] = system: T47D
[19] = system: UO-31
[20] = system: SK-MEL-28

SMILES | GI50 [1] | GI50 [2] | GI50 [3] | GI50 [4] | GI50 [5] | GI50 [6] | GI50 [7] | GI50 [8] | GI50 [9] | GI50 [10] | GI50 [11] | GI50 [12] | GI50 [13] | GI50 [14] | GI50 [15] | GI50 [16] | GI50 [17] | GI50 [18] | GI50 [19] | GI50 [20]
COc1cc(C2OC[C@@H]3C(=O)OC[C@H]23)cc(O)c1OC (some centres undefined) | > 100 µM (inactive) | > 100 µM (inactive) | > 100 µM (inactive) | > 100 µM (inactive) | > 100 µM (inactive) | > 100 µM (inactive) | > 100 µM (inactive) | > 100 µM (inactive) | > 100 µM (inactive) | > 100 µM (inactive) | > 100 µM (inactive) | > 100 µM (inactive) | > 100 µM (inactive) | > 100 µM (inactive) | > 100 µM (inactive) | > 100 µM (inactive) | > 100 µM (inactive) | > 100 µM (inactive) | > 100 µM (inactive) | 
CC(CS(=O)(=O)Cc1ccccc1)C(N)=O (centres undefined) | > 100 µM (inactive) | > 100 µM (inactive) |  | > 100 µM (inactive) | > 100 µM (inactive) | > 100 µM (inactive) | > 100 µM (inactive) | > 100 µM (inactive) | > 100 µM (inactive) | > 100 µM (inactive) | > 100 µM (inactive) | > 100 µM (inactive) | > 100 µM (inactive) | > 100 µM (inactive) | > 100 µM (inactive) |  | > 100 µM (inactive) | > 100 µM (inactive) | > 100 µM (inactive) | > 100 µM (inactive)
CS/C(Nc1ccccc1)=C1\C(=O)N(c2ccccc2)N=C1C |  | > 100 µM (inactive) | > 100 µM (inactive) | > 100 µM (inactive) | > 100 µM (inactive) | > 100 µM (inactive) | > 100 µM (inactive) | > 100 µM (inactive) |  | > 100 µM (inactive) | > 100 µM (inactive) | > 100 µM (inactive) | > 100 µM (inactive) | > 100 µM (inactive) | > 100 µM (inactive) | > 100 µM (inactive) | > 100 µM (inactive) | > 100 µM (inactive) | > 100 µM (inactive) | > 100 µM (inactive)
O=C(Nc1ccccc1F)c1cc2ccc(O)cc2o/c1=N\c1cccc(F)c1 | 9.89 µM (inactive) | 15.3 µM (inactive) | 3.31 µM (inactive) | 29.7 µM (inactive) | 15 µM (inactive) | 11.1 µM (inactive) | 11.1 µM (inactive) | 25.6 µM (inactive) | 3.66 µM (inactive) | 15.1 µM (inactive) | 14.8 µM (inactive) | 14.6 µM (inactive) |  | 23.7 µM (inactive) | 17.5 µM (inactive) |  | 12.9 µM (inactive) | 4.25 µM (inactive) | 13 µM (inactive) | 12.3 µM (inactive)
CCOC(=O)Nc1c(C#N)[n+]([O-])c2cc(Cl)c(Cl)cc2[n+]1[O-] |  | 15.6 µM (inactive) | 4.37 µM (inactive) | 15 µM (inactive) | 32.5 µM (inactive) |  | 14 µM (inactive) | 39.5 µM (inactive) | 13.1 µM (inactive) | 16.7 µM (inactive) | 16.4 µM (inactive) | 16.1 µM (inactive) | 15.7 µM (inactive) |  | 12.9 µM (inactive) | 15.4 µM (inactive) | 4.09 µM (inactive) | 13.5 µM (inactive) | 16.6 µM (inactive) | 14.6 µM (inactive)
CN(/N=C/c1cccs1)c1ccc([N+](=O)[O-])cc1[N+](=O)[O-] | > 100 µM (inactive) | > 100 µM (inactive) | > 100 µM (inactive) | > 100 µM (inactive) | > 100 µM (inactive) | > 100 µM (inactive) | > 100 µM (inactive) | > 100 µM (inactive) | > 100 µM (inactive) | > 100 µM (inactive) | > 100 µM (inactive) | > 100 µM (inactive) |  |  | > 100 µM (inactive) | 77.8 µM (inactive) | > 100 µM (inactive) | > 100 µM (inactive) | > 100 µM (inactive) | > 100 µM (inactive)
CC(=O)OCC(OC(C)=O)C(OC(C)=O)C(OC(C)=O)C(C=NN(C(C)=O)S(=O)(=O)c1ccc(/C=C2\NC(=O)N(C)C2=O)cc1)OC(C)=O (centres undefined) | 34.5 µM (inactive) | 33.9 µM (inactive) | 13 µM (inactive) | 26.2 µM (inactive) | 33 µM (inactive) | 43 µM (inactive) | 16.9 µM (inactive) | 32.9 µM (inactive) | 31.6 µM (inactive) | 40.1 µM (inactive) | 36.3 µM (inactive) | 35.7 µM (inactive) | 38.7 µM (inactive) | 83.2 µM (inactive) |  | 33.7 µM (inactive) | 23.4 µM (inactive) | 27.1 µM (inactive) | 57.5 µM (inactive) | 
O=C(O)C1OC1(c1cccc(Cl)c1)c1ccccc1Cl (centres undefined) | 31.7 µM (inactive) | 18.8 µM (inactive) | 11.2 µM (inactive) | 53.3 µM (inactive) | 26.1 µM (inactive) | 25.4 µM (inactive) | 19 µM (inactive) | 25.4 µM (inactive) | 34.9 µM (inactive) | 29.4 µM (inactive) | 22.9 µM (inactive) | 23.6 µM (inactive) | 38.2 µM (inactive) | 58.7 µM (inactive) | 25.9 µM (inactive) | 19.9 µM (inactive) |  | 20.7 µM (inactive) | 20.8 µM (inactive) | 22.1 µM (inactive)
O=c1c2ccccc2nc(N/N=C/c2ccc([N+](=O)[O-])cc2)n1-c1ccccc1 | 13.3 µM (inactive) | 18 µM (inactive) | > 100 µM (inactive) | > 100 µM (inactive) | 26.9 µM (inactive) | 20 µM (inactive) | 5.05 µM (inactive) | 6.35 µM (inactive) | > 100 µM (inactive) | 20.9 µM (inactive) | 42.4 µM (inactive) | 57.5 µM (inactive) | > 100 µM (inactive) | > 100 µM (inactive) |  | 7.93 µM (inactive) | > 100 µM (inactive) | 9.59 µM (inactive) | > 100 µM (inactive) | 10.7 µM (inactive)
NS(=O)(=O)c1nnc(NC(=O)/C=C/C(=O)O)s1 | > 100 µM (inactive) | > 100 µM (inactive) |  | > 100 µM (inactive) | > 100 µM (inactive) | > 100 µM (inactive) | > 100 µM (inactive) | > 100 µM (inactive) |  | > 100 µM (inactive) | > 100 µM (inactive) | > 100 µM (inactive) |  | > 100 µM (inactive) | > 100 µM (inactive) |  | > 100 µM (inactive) | > 100 µM (inactive) | > 100 µM (inactive) | > 100 µM (inactive)
CC(=O)Nc1ccc(-c2nc3ccccc3s2)cc1Br | 63.4 µM (inactive) | 29.1 µM (inactive) | > 100 µM (inactive) | > 86.7 µM (inactive) | 48.2 µM (inactive) | 10.5 µM (inactive) | 20.5 µM (inactive) | 15.7 µM (inactive) | 0.0124 µM (active) | 0.141 µM (active) | > 100 µM (inactive) | > 100 µM (inactive) | 2.42 µM (inactive) |  | 27.3 µM (inactive) | 32.1 µM (inactive) | > 100 µM (inactive) | 0.687 µM (active) | 25.5 µM (inactive) | > 100 µM (inactive)
